Earlier results on 1 compound are cited in patent US9863006B2, “Selective lysis of cells by ionic surfactants” (Biocartis NV, priority 2011, dated 2018).

SMILES strings stand for the structures.

The conditions of this series: room temperature.

As to `CCCCCCCCCCCCOS(=O)(=O)[O-].[Na+]` [sodium dodecyl sulfate], the “time to cross the membrane” value is “hours or days”.
